Test results taken from ChEMBL document CHEMBL5030536, “Subtle Chemical Changes Cross the Boundary between Agonist and Antagonist: New A3 Adenosine Receptor Homology Models and Structural Network Analysis Can Predict This Boundary” (J Med Chem, 2021).

Tests used:
[1] = target: T1, Adenosine receptor A1 (Homo sapiens, UniProt P30542); experiment: Displacement of [3H]R-PIA from recombinant human A1 adenosine receptor expressed in CHO cell membrane incubated for 60 mins by liquid scintillation counting method; format: cell membranes
T1 sequence (P30542 whole entry): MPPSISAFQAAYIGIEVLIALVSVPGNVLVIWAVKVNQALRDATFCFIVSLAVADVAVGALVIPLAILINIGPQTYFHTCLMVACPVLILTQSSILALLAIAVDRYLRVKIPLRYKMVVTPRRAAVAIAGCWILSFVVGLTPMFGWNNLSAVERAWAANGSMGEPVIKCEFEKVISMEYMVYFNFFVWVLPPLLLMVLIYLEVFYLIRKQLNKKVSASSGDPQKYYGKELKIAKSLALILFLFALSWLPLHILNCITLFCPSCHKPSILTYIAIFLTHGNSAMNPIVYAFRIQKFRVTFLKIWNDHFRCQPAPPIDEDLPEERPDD

[2] = target: Adenosine receptor A2a (Homo sapiens, UniProt P29274); experiment: Displacement of [3H]CGS21680 from recombinant human A2A adenosine receptor expressed in HEK293 cells incubated for 60 mins by liquid scintillation counting method; format: cell-based
[3] = target: T2, Adenosine receptor A3 (Homo sapiens, UniProt P0DMS8); experiment: Displacement of [125I]AB-MECA from human A3 adenosine receptor expressed in CHO cell membrane incubated for 60 mins by gamma counter method; format: cell membranes
T2 sequence (P0DMS8 whole entry): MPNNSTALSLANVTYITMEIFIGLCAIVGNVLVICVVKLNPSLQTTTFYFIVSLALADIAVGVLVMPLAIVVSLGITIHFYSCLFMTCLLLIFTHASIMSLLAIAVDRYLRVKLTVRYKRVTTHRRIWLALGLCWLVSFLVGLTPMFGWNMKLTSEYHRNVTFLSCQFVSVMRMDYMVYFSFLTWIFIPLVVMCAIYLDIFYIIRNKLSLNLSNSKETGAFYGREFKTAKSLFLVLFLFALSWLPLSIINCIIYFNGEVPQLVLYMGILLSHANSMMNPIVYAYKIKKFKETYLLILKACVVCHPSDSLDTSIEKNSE

Adenosine receptor A2a, sequence (P29274 whole entry): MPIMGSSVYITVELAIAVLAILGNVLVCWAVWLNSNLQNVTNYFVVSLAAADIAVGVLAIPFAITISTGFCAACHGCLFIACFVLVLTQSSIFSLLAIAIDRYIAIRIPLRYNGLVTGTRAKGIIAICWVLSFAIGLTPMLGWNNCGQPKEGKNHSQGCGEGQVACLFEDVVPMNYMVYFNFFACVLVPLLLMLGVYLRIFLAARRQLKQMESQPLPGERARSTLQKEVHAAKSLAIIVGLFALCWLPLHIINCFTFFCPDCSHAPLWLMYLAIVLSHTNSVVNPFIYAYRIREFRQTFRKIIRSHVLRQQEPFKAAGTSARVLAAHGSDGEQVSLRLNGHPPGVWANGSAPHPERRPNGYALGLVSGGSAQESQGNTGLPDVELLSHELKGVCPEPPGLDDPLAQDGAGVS

| SMILES | Ki [1] [nM] | Ki [2] [nM] | Ki [3] [nM] |
| --- | --- | --- | --- |
| CNc1ncnc2c1ncn2[C@@H]1SC[C@@H](N)[C@H]1O | 1670 | – | – |
| N[C@@H]1CS[C@@H](n2cnc3c(NCc4cccc(I)c4)nc(Cl)nc32)[C@@H]1O | 2200 | 2390 | 380 |
| N[C@@H]1CS[C@@H](n2cnc3c(NCc4cccc(I)c4)ncnc32)[C@@H]1O | 2450 | 2300 | 260 |
